# Data from patent publication US20240158447A1, “PEPTIDES FOR USE IN THE TREATMENT OR PREVENTION OF MYOCARDIAL DAMAGE” (THE UNIVERSITY OF WESTERN AUSTRALIA, priority 2020, published 2024).
# What was measured:
# Cavβ2 subunit = biological target: T1, Cavβ2 subunit (Homo sapiens, UniProt Q08289); assay: Competitive binding affinity assay, biotinylated AID affinity beads vs Cavβ2 subunit (Example 9); conditions: dose-response 0, 10 nM to 100 μM peptide; FIG. 9
# T1 construct: incubated with 100 μg of Cavβ2 subunit from cardiac homogenate and cytoplasmic protein preparation; from tissue; host or cells: cardiac homogenate and cytoplasmic protein preparation
# T1 sequence (Q08289 whole entry): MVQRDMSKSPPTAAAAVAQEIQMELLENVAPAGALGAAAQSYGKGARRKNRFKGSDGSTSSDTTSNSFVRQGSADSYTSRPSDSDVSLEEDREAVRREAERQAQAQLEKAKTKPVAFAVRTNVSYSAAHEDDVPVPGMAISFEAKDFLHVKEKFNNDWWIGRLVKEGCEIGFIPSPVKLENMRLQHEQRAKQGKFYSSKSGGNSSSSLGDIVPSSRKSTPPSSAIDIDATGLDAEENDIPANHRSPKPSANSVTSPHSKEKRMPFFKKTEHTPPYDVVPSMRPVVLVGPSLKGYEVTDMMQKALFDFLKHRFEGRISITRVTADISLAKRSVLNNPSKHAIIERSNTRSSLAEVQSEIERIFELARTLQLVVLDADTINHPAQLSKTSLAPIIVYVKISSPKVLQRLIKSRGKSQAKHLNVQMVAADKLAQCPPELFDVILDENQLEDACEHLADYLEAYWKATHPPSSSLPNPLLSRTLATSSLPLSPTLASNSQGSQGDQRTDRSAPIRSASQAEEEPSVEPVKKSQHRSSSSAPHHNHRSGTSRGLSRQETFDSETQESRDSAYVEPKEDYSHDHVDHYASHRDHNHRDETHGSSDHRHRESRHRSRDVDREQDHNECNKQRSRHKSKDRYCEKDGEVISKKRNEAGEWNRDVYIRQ
# Procedure: In this experiment, a binding affinity assay was utilized to examine the binding efficacy of AID peptide variants presented in Table 8, compared to the original AID peptide.
# Biotinylation of original AID (no TAT): For each reaction (a dose-response curve consisted of 6 reactions), 0.02 nM […] was incubated in biotinylation solution (0.1M MES buffer containing 1 nM amine-PEG11-biotin and 0.2 nM EDC) for 2 hrs at room temperature with agitation (400 rpm). Affinity beads (Dynabeads M-280 Streptavidin, ThermoFisher Scientific) were then incubated with biotinylated AID peptide for 30 min at room temperature with agitation (400 rpm). Afterwards, biotinylated AID-coated affinity beads were washed, initially in 0.1% BSA in PBS and then three times in PBS for 3 min.
# Biochem J. 2000; 348 Pt 3:657-65; Haase H, Striessnig J, Holtzhauer M, Vetter R, Glossmann H. A rapid procedure for the purification of cardiac 1,4-dihydropyridine receptors from porcine heart. Eur J Pharmacol. 1991; 207(1):51-9).
# Competitive binding of AID-affinity beads and Cavβ2 subunit: Cavβ2-AID mutant peptide dilutions were then incubated with biotinylated AID-coated affinity beads for 2 hrs at room temperature with gentle agitation (400 rpm). Samples were placed on a magnetic stand to allow affinity beads to migrate to the magnet. Supernatant was removed and treated with 1× sample buffer (62.5 mM Tris-HCl, pH 6.8, 2% SDS, 10% glycerol, 100 mM DTT, 0.002% Bromophenol Blue) for 5 min at 95° C. Resulting protein was analysed by immunoblot.
# cTnI.2 wt myocytes = assay: Mitochondrial membrane potential (JC-1) response to BayK(−), wt myocytes (Example 10); assay type: cell-based, mouse; conditions: 0.5 μM peptide, calcium-free, FIG. 11A
# Procedure: In this experiment wt myocytes were pre-exposed to 0.1, 0.5 or 1 μM for 20 min and assessed changes in flavoprotein oxidation and ψm.
# Measurement of mitochondrial membrane potential: The fluorescent indicator 5,5′,6,6′-tetrachloro1,1′,3,3′-tetraethylbenzimidazolylcarbocyanine iodide (JC-1) was used to measure mitochondrial membrane potential (ψm) as previously described (Viola H M, Arthur P G, Hool L C. Transient exposure to hydrogen peroxide causes an increase in mitochondria-derived superoxide as a result of sustained alteration in L-type Ca2+ channel function in the absence of apoptosis in ventricular myocytes. Circ Res. 2007; 100(7):1036-44). […] Images were acquired at 2 min intervals with 50 ms exposure. Metamorph 6.3 (Version 7.10.3) was used to quantify the signal by manually tracing myocytes. An equivalent region not containing cells was used as background and was subtracted. The 580 nm/535 nm ratiometric fluorescence values recorded over 6 min before and 4 min after addition of drugs were averaged and alterations in fluorescent ratios reported as the percentage increase from the basal average. […] In addition, individual 580 and 535 signals were assessed in each experiment to determine whether the fluorescent indicator was accurately measuring ψm. […]
# Based on results obtained from in vitro assessment of flavoprotein oxidation, the effect of 0.5 μM AID-TAT variants on changes in mitochondrial membrane potential (ψm) was further explored. Experiments were performed using JC-1 fluorescence under calcium-free conditions as previously described (Viola H, Johnstone V, Cserne Szappanos H, Richman T, Tsoutsman T, Filipovska A, et al. The L-type Ca(2+) channel facilitates abnormal metabolic activity in the cTnI-G2035 mouse model of hypertrophic cardiomyopathy. J Physiol. 2016; 594(14):4051-70; Viola H M, Shah A A, Johnstone V P A, Cserne Szappanos H, Hodson M P, Hool L C. Characterization and validation of a preventative therapy for hypertrophic cardiomyopathy in a murine model of the disease. Proc Natl Acad Sci U S A. 2020; 117(37):23113-24). […]
# cTnI-G203S mice = assay: Heart weight to body weight ratio of treated cTnI-G203S mice; assay type: in vivo, mouse; conditions: 5 μM, 3×/wk/5 wk; compared with cTnI-G203S AID(S)-TAT; FIG. 16
# Procedure: The effect of treatment of the mice with peptides on the development of hypertrophy assessed as changes in heart weight to body weight ratio was also examined. […] FIG. 16 presents the mean±SEM of heart weight to body weight ratio measurements from wt and cTnI-G203S mice treated with 10 μM AID(S)-TAT, 10 μM AID-TAT, 5 μM AIDP7-TAT, 5 μM AIDP14-TAT, 5 μM AIDP15-TAT or 5 μM AIDP16-TAT. n=number of mice as indicated. *P<0.05, **P<0.01 compared with cTnI-G203S AID(S)-TAT as determined by Kruskal-Wallis tests.
substance,measurement,setting,value
AIDP7-TAT: QQQEEDLKGYLDWITQAE with TAT sequence,K0.5 values compared to AID peptide,Cavβ2 subunit,decreased K0.5 values
same,BayK(−) induced increase in ψm (JC-1 fluorescence),cTnI.2 wt myocytes,significantly attenuated the response
same,heart weight to body weight ratio,cTnI-G203S mice,significantly decreased heart weight/body weight
